Results reported in paper PMC7437907, “Impact of pH and protein hydrophobicity on norovirus inactivation by heat-denatured lysozyme” (PLoS ONE, 2020).

What was measured:
[1] = tested on: MNV-1; details: after exposure to DL for 1 h; cited from earlier work
Excerpt: We have reported that thermally denatured lysozyme (DL) inactivates norovirus. […] Furthermore, DL inactivates norovirus in several foods and is also effective against the hepatitis A virus. However, the conditions for optimal DL norovirus-inactivating effects and the underlying mechanism remain unclear.

[2] = tested on: MNV-1; experiment: MNV-1 inactivation by heat-denatured Lzm peptides (plaque assay); assay type: cell-based, murine norovirus strain 1; details: peptides at same molar concentration as 1.0% (w/v) lysozyme, or DL 1% pH 3.7; heat-denatured 100°C 40 min; MNV-1 approx. 6 log PFU/mL, 60 min, room temperature; mean, n = 3
Method: The infectivity of MNV-1 was determined by a plaque assay, as described previously. Briefly, RAW264.7 cells were seeded into 6-well plates (Falcon BD, Franklin Lakes, NJ) at approximately 6 log cells/mL in DMEM containing 5% (v/v) FBS, penicillin (100 U/mL), and streptomycin (100 μg/mL). The plates were incubated at 37°C under 5% CO2 for 18 h. Then, 500 μL/well of samples prepared as described below sections were added to the plates, and the plates were shaken at 20 r/min for 1 h. The inoculated sample was removed, and the wells overlaid with 2 mL of 1.5% (v/v) SeaPlaque agarose (Lonza Japan, Tokyo, Japan) in DMEM containing 5% (v/v) FBS. The plates were incubated at 37°C under 5% CO2 for 48 h. Then, 2 mL of 0.03% (v/v) neutral red solution (Sigma-Aldrich Japan, Tokyo, Japan) was added, and the plates incubated at 37°C under 5% CO2 for 1 h. Thus, visualized plaques were then counted. The synthesized peptides were dissolved in distilled water to the same molarity as 2.0% (w/v) lysozyme, 14,307 of molecular weight, and heated in an oil bath at 100°C for 40 min, then immediately cooled in ice. Next, 120 μL of MNV-1 solution at 6 log pfu/mL was mixed with 120 μL of the prepared heat-denatured peptides, and allowed to stand for 60 min at room temperature. The samples were immediately diluted 10-fold in DMEM and analyzed by the plaque assay, as described above.

[3] = tested on: MNV-1; experiment: Plaque assay for MNV-1 infectivity after exposure to DL preparations at different pH; assay type: cell-based, murine norovirus strain 1
Method: The infectivity of MNV-1 was determined by a plaque assay, as described previously [9]. Briefly, RAW264.7 cells were seeded into 6-well plates (Falcon BD, Franklin Lakes, NJ) at approximately 6 log cells/mL in DMEM containing 5% (v/v) FBS, penicillin (100 U/mL), and streptomycin (100 μg/mL). The plates were incubated at 37°C under 5% CO2 for 18 h. Then, 500 μL/well of samples prepared as described below sections were added to the plates, and the plates were shaken at 20 r/min for 1 h. The inoculated sample was removed, and the wells overlaid with 2 mL of 1.5% (v/v) SeaPlaque agarose (Lonza Japan, Tokyo, Japan) in DMEM containing 5% (v/v) FBS. The plates were incubated at 37°C under 5% CO2 for 48 h. Then, 2 mL of 0.03% (v/v) neutral red solution (Sigma-Aldrich Japan, Tokyo, Japan) was added, and the plates incubated at 37°C under 5% CO2 for 1 h. Thus, visualized plaques were then counted. […] The samples were then diluted 10-fold in DMEM to stop the virus inactivation reaction and analyzed by the plaque assay, as described above.

[4] = tested on: interferon β (Ifnb) gene; experiment: Gene expression (qPCR) of RAW264.7 macrophages infected with DL-treated MNV-1: Ifnb; assay type: cell-based; details: MNV-1 exposed to 1.0% DL (pH 6.5 before denaturation) for 60 min, MOI 0.01, 24 h, fold-change vs mock by ΔΔCt, n = 3
Method: (§1) RAW264.7 cell monolayers (1 × 10^7 cells/mL) in T25 cell flasks (Thermo Fisher Scientific K. K., Tokyo, Japan) were inoculated as described below.
(§2) Live MNV-1 (6 log PFU/mL) was used at a multiplicity of infection (MOI) of 0.01. For some experiments, MNV-1 (6 log PFU/mL) was inactivated by heating at 100°C for 40 min in an oil bath. The heat-treated MNV-1 was then used at MOI of 0.01 (infectivity as determined before heat inactivation). For another set of experiments, 100 μL of MNV-1 (6 log PFU/mL) was mixed with 100 μL of 2.0% of DL (adjusted at pH 6.5 before thermally-denaturation) and allowed to stand at room temperature for 60 min. The mixture was used at MOI of 0.01 (infectivity as before DL treatment).
(§3) The inoculated RAW264.7 cell monolayers were incubated at 37°C under 5% CO2 for 24 h. The cells were then detached by using a cell scraper (Thermo Fisher Scientific) and centrifuged at 300 × g for 5 min. […]
(§4) Total RNA was extracted from inoculated RAW264.7 macrophages using the RNeasy Mini kit (Qiagen, Hilden, Germany), according to the manufacturer’s instructions. […] The resulting cDNA was amplified by quantitative polymerase chain reaction (qPCR) to quantitate the expression levels of interferon β (Ifnb) and interleukin 6 (Il6) genes. […] Fold-changes in mRNA abundance were calculated by the ΔΔCt method, as previously described.

[5] = Surface hydrophobicity, protein stability and aggregation assay kit (PSA200K); assay type: physicochemical; details: 1% lysozyme solution, pH 4.5–8.5, DL denatured 100°C 40 min, 1X PSA solution, λEx 550 nm, λEm 610 nm, compared with native lysozyme at same pH, p < 0.01, n = 3
Method: Hydrophobicity, thiol group content, and circular dichroism (CD) spectra of the different DL preparations were analyzed. Hydrophobicity was measured by using protein stability and aggregation assay kit (PSA200K, Profoldin, Hudson, MA), according to the manufacturer’s instructions. Sample excitation was measured at 550 nm and emission at 610 nm, using a spectrofluorometer (SH-9000, Corona Electric Co., Ltd., Ibaraki, Japan). Thiol group content was determined in a reaction mixture containing 192 μL of deionized water, 20 mM Tris-HCl at pH 8.0, 2.8 μL of Ellman’s reagent [prepared by dissolving 4 mg of 5,5′-dithiobis-(2-nitrobenzoic acid) powder in 1 mL of Tris buffer at pH 7.0], and 200 μL of 1.0% (w/v) DL. After incubation at room temperature for 1 h in the dark, sample absorbance was measured at 412 nm by using a microplate reader (SH-1000 Lab, Corona Electric Co., Ltd.). CD spectra were acquired using a circular dichroism dispersometer (J-720, JASCO Corporation, Tokyo, Japan). For the analysis, DL preparation was diluted to 100 μg/mL in distilled water, and the spectra acquired in the range of 190 to 250 nm, with a scanning speed of 100 nm/min, a bandwidth of 1 nm, and integration frequency of 10.

[6] = tested on: interleukin 6 (Il6) gene; experiment: Gene expression (qPCR) of RAW264.7 macrophages infected with DL-treated MNV-1: Il6; assay type: cell-based; details: MNV-1 exposed to 1.0% DL (pH 6.5 before denaturation) for 60 min, MOI 0.01, 24 h, fold-change vs mock by ΔΔCt, n = 3
Method: as §1, §2, §3, §4

[7] = stated in discussion, no reference given; cited from earlier work
Excerpt: Lysozyme is a positively charged protein with an isoelectric point of 11. We anticipated that in a high-pH solution (pH 6.5–8.5), the intermolecular forces would become stronger, thus, denaturing the protein structure upon heating. In other words, adjusting the pH to a high value would trigger the loosening of the protein structure during thermal denaturation. […] Of ...

Row | Substance | Decrease in MNV-1 infectivity (log reduction) [2] | other results
1 | DL: thermally denatured egg white lysozyme, prepared at pH 3.7–8.5 | 0.9 log PFU/mL | Average expansion of MNV-1 particle size [1]: 16.37 nm; Infectivity of MNV-1 after exposure, trend with pH ([3]; 0.1% and 0.5% DL final, preparations at different pH, exposure 60 min, n = 3): tended to decrease as the pH of DL preparations increased; Infectivity of MNV-1 after exposure, versus control ([3]; 1.0% DL final, DL preparations at pH 4.5–8.5, exposure 1 min, control distilled water, Dunnett's test p < 0.01, n = 3): significantly lower than that of the control; Expression of the Ifnb gene [4]: did not increase; Surface hydrophobicity (fluorescence intensity) [5]: significantly higher than that of native lysozyme at any pH; Expression of the Il6 gene [6]: did not increase
2 | ITASVNCAKKIVSDGNGMNAWVAWRNRCKGTDVQAWIR [Lzm 88–125, synthetic peptide containing lysozyme residues 88–125] | 0.2 log PFU/mL | 
3 | KVFGRCELAAAMKRHGLDNYRGYSLGNWVCAAKFE [Lzm 1–35, synthetic peptide containing lysozyme residues 1–35] | 1.7 log PFU/mL | 
4 | Lysozyme: egg white lysozyme, single-chain polypeptide consisting of 129 amino acids |  | Isoelectric point [7]: 11
5 | RCELAAAMKREGLDNYRGYSLGNWVCAAEFESNFN [Lzm R1, variant of Lzm 5–39, basic amino acids replaced with acidic amino acids] | lost | 
6 | RCELAAAMKRHGLDNYRGYSLGNNVCAAKNESNNN [Lzm R2, variant of Lzm 5–39, aromatic amino acids replaced to reduce hydrophobicity] | lost | 
7 | RCELAAAMKRHGLDNYRGYSLGNWVCAAKFESNFN [Lzm 5–39, synthetic peptide of lysozyme residues 5–39] | 1.7 log PFU/mL | 
8 | RCNLAAAMKRHGLNNYRGYSLGNWVCAAKFNSNFN [Lzm R3, variant of Lzm 5–39, all acidic amino acids replaced with uncharged amino acids] | 2.0 log PFU/mL | 
